# Measurements from patent publication US9751874B2, “Hydroxy containing FXR (NR1H4) modulating compounds” (Gilead Sciences, Inc., priority 2014, dated 2017).
# Structures can show the parent of a compound that is named as a salt.
# Tests used:
# [1] = biological target: T1, FXR ligand binding domain (Homo sapiens, UniProt Q96RI1); experiment: Mammalian One Hybrid (M1H) assay, Gal4 promoter driven transactivation in HEK293 cells; assay type: cell-based; conditions: Gal4-FXR-LBD luciferase reporter, 16 h
# T1 construct: expressed in transfected cells; host or cells: HEK293 cells, transiently transfected with pCMV-BD-FXR-LBD, pFR-Luc and pRL-CMV
# T1 sequence (Q96RI1 187-472 isoform Q96RI1-2): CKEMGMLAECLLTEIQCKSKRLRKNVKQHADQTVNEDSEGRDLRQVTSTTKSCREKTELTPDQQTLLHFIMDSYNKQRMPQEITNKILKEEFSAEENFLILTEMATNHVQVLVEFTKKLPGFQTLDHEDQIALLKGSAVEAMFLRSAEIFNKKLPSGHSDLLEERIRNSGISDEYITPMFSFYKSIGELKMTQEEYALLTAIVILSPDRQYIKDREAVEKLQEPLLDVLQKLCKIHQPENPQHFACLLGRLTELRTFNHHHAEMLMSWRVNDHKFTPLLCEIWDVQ
# Summary of the method: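 HEK293 cells were transiently co-transfected with Gal4-DBD fused to the human FXR LBD (aa 187-472, NM_005123), a 5×GAL4-site firefly luciferase reporter and CMV-Renilla control. Compounds were added 2-4 h post-transfection (vehicle ≤0.1%) in charcoal/dextran-stripped FBS medium for 16 h. Firefly and Renilla luciferase were read sequentially, in triplicate.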
# [2] = biological target: T2, human FXR alpha ligand binding domain (Homo sapiens, UniProt Q96RI1); experiment: FRET activity assay (ligand mediated cofactor peptide interaction, LANCE); assay type: biochemical; conditions: GST-FXR-LBD / biotinylated SRC-1 peptide (676-700), read-out: F EC50
# T2 construct: made in house; host or cells: E. coli BL21(DE3), vector pDEST15
# T2 sequence (Q96RI1 187-472 isoform Q96RI1-2): T1 sequence (Q96RI1 187-472 isoform Q96RI1-2)
# Summary of the method: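 GST-tagged FXR LBD (aa 187–472, E. coli-expressed) at 20–60 ng/well with 200–600 nM biotinylated SRC-1 peptide (676–700), streptavidin-APC and Eu anti-GST in Tris pH 7.5 buffer, 1% DMSO, equilibrated 1 h dark at room temperature. TR-FRET read as 665/615 nm ratio; agonists raise signal above basal.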
SMILES,EC50 [1],EC50 [2]
"Cc1onc(-c2c(Cl)cccc2Cl)c1CO[C@@H]1C[C@H]2CC[C@@H](C1)[C@]2(O)c1nc2ccc(C(=O)O)cc2s1 [Example 11-37, 2-((1R,3s,5S,8r)-3-((3-(2,6-Dichlorophenyl)-5-methylisoxazol-4-yl)methoxy)-8-hydroxybicyclo[3.2.1]octan-8-yl)benzo[d]thiazole-6-carboxylic acid]",43 nM,8.8 nM
O=C(O)c1ccc([C@]2(O)[C@@H]3CC[C@H]2C[C@H](OCc2c(-c4c(Cl)cccc4Cl)noc2C2CC2)C3)c(F)c1 [Example 11-24],14 nM,7.8 nM
"CC(C)(O)c1cc(F)c2nc([C@]3(O)CC[C@@H](OCc4c(-c5c(Cl)cncc5Cl)noc4C4CC4)CC3)sc2c1 [Example 20, (1s,4s)-4-((5-Cyclopropyl-3-(3,5-dichloropyridin-4-yl)isoxazol-4-yl)methoxy)-1-(4-fluoro-6-(2-hydroxypropan-2-yl)benzo[d]thiazol-2-yl)cyclohexanol]",200 nM,150 nM
"O[C@@]1(c2nc3ccccc3s2)[C@@H]2CC3C[C@H]1C[C@](OCc1c(-c4c(Cl)cccc4Cl)noc1C1CC1)(C3)C2 [Example 24b, (1R,2s,3S,5s,7s)-2-(benzo[d]thiazol-2-yl)-5-((5-cyclopropyl-3-(2,6-dichlorophenyl)isoxazol-4-yl)methoxy)adamantan-2-ol]",730 nM,240 nM
"O=C(O)c1cc(F)c2nc([C@]3(O)CC4CC3CC4OCc3c(-c4c(Cl)cccc4Cl)noc3C3CC3)sc2c1 (stereo partly drawn) [Example 11-49, 2-((1R,2S,4R)-5-((5-Cyclopropyl-3-(2,6-dichlorophenyl)isoxazol-4-yl)methoxy)-2-hydroxybicyclo[2.2.1]heptan-2-yl)-4-fluorobenzo[d]thiazole-6-carboxylic acid]",93 nM,28 nM
"O=C(O)c1ccc2nc([C@]3(O)[C@@H]4CC[C@H]3C[C@H](OCc3c(-c5c(Cl)cccc5Cl)noc3C3CC3)C4)sc2c1 [Example 11-22, 2-((1R,3s,5S,8r)-3-((5-cyclopropyl-3-(2,6-dichlorophenyl)isoxazol-4-yl)methoxy)-8-hydroxybicyclo[3.2.1]octan-8-yl)benzo[d]thiazole-6-carboxylic acid]",1.6 nM,3.7 nM
"O=C(O)c1nsc2ccc([C@]3(O)CC[C@@H](OCc4c(-c5c(Cl)cccc5Cl)noc4C4CC4)CC3)cc12 [Example 33, 5-((1s,4s)-4-((5-Cyclopropyl-3-(2,6-dichlorophenyl)isoxazol-4-yl)methoxy)-1-hydroxycyclohexyl)benzo[d]isothiazole-3-carboxylic acid]",2700 nM,120 nM
"NC(=O)c1cc(F)c2nc([C@]3(O)CC[C@@H](OCc4c(-c5c(Cl)cncc5Cl)noc4C4CC4)CC3)sc2c1 [Example 18, 2-((1s,4s)-4-((5-Cyclopropyl-3-(3,5-dichloropyridin-4-yl)isoxazol-4-yl)methoxy)-1-hydroxycyclohexyl)-4-fluorobenzo[d]thiazole-6-carboxamide]",440 nM,98 nM
"CC(C)c1onc(-c2c(Cl)cccc2Cl)c1CO[C@@H]1C[C@H]2CC[C@@H](C1)[C@]2(O)c1nc2c(F)cc(C(=O)O)cc2s1 [Example 11-51, 2-((1R,3s,5S,8r)-3-((3-(2,6-Dichlorophenyl)-5-isopropylisoxazol-4-yl)methoxy)-8-hydroxybicyclo[3.2.1]octan-8-yl)-4-fluorobenzo[d]thiazole-6-carboxylic acid]",0.62 nM,3.7 nM
"O=C(O)c1cc(F)c2nc([C@]3(O)[C@@H]4CC[C@H]3C[C@H](OCc3c(C5CC5)cnn3-c3c(Cl)cccc3Cl)C4)sc2c1 [Example 47, 2-((1R,3s,5S,8r)-3-((4-Cyclopropyl-1-(2,6-dichlorophenyl)-1H-pyrazol-5-yl)methoxy)-8-hydroxybicyclo[3.2.1]octan-8-yl)-4-fluorobenzo[d]thiazole-6-carboxylic acid]",7.9 nM,1.1 nM
"O=C(O)c1ccc2nc([C@]3(O)CC[C@@H](OCc4c(C5CC5)cnn4-c4ccccc4OC(F)F)CC3)sc2c1 [Example 11-17, 2-((1s,4s)-4-((4-Cyclopropyl-1-(2-(difluoromethoxy)phenyl)-1H-pyrazol-5-yl)methoxy)-1-hydroxycyclohexyl)benzo[d]thiazole-6-carboxylic acid]",1800 nM,980 nM
"O[C@]1(c2nc3c(F)cc(-c4nnn[nH]4)cc3s2)CC[C@H](OCc2c(-c3c(Cl)cccc3Cl)noc2C2CC2)CC1 [Example 21, (1s,4s)-4-((5-Cyclopropyl-3-(2,6-dichlorophenyl)isoxazol-4-yl)methoxy)-1-(4-fluoro-6-(1H-tetrazol-5-yl)benzo[d]thiazol-2-yl)cyclohexanol]",1700 nM,64 nM
"O=C(O)Cc1ccc(F)c([C@]2(O)CC[C@@H](OCc3c(-c4c(Cl)cccc4Cl)noc3C3CC3)CC2)c1 [Example 11-9, 2-(3-((1s,4s)-4-((5-Cyclopropyl-3-(2,6-dichlorophenyl)isoxazol-4-yl)methoxy)-1-hydroxycyclohexyl)-4-fluorophenyl)acetic acid]",120 nM,47 nM
"O=C(O)c1ccc2nc([C@]3(O)CC[C@@H](OCc4c(-c5ccccc5OC(F)(F)F)noc4C4CC4)CC3)sc2c1 [Example 11-14, 2-((1s,4s)-4-((5-Cyclopropyl-3-(2-(trifluoromethoxy)phenyl)isoxazol-4-yl)methoxy)-1-hydroxycyclohexyl)benzo[d]thiazole-6-carboxylic acid]",270 nM,230 nM
"CC1(C)C[C@@H](OCc2c(-c3c(Cl)cccc3Cl)noc2C2CC2)CC[C@]1(O)c1nc2c(F)cc(C(=O)O)cc2s1 (racemic) [Example 11-32, 2-((1R,4S)-4-((5-Cyclopropyl-3-(2,6-dichlorophenyl)isoxazol-4-yl)methoxy)-1-hydroxy-2,2-dimethylcyclohexyl)-4-fluorobenzo[d]thiazole-6-carboxylic acid]",23 nM,120 nM
"O=C(O)c1ccc2nc([C@]3(O)CC[C@@H](OCc4c(-c5c(Cl)cccc5Cl)noc4C4CC4)CC3)sc2c1F [Example 14-1, 2-((1s,4s)-4-((5-Cyclopropyl-3-(2,6-dichlorophenyl)isoxazol-4-yl)methoxy)-1-hydroxycyclohexyl)-7-fluorobenzo[d]thiazole-6-carboxylic acid]",550 nM,25 nM
"CC(C)(O)c1onc(-c2c(Cl)cccc2Cl)c1CO[C@@H]1C[C@H]2CC[C@@H](C1)[C@]2(O)c1nc2c(F)cc(C(=O)O)cc2s1 [Example 11-56, 2-((1R,3s,5S,8r)-3-((3-(2,6-Dichlorophenyl)-5-(2-hydroxypropan-2-yl)isoxazol-4-yl)methoxy)-8-hydroxybicyclo[3.2.1]octan-8-yl)-4-fluorobenzo[d]thiazole-6-carboxylic acid]",290 nM,23 nM
"O=C(O)c1ccnc([C@]2(O)CC[C@@H](OCc3c(-c4c(Cl)cccc4Cl)noc3C3CC3)CC2)c1 [Example 11-6, 2-((1s,4s)-4-((5-Cyclopropyl-3-(2,6-dichlorophenyl)isoxazol-4-yl)methoxy)-1-hydroxycyclohexyl)isonicotinic acid]",51 nM,40 nM
"O=C(NCCS(=O)(=O)O)c1cc(F)c2nc([C@]3(O)[C@@H]4CC[C@H]3C[C@H](OCc3c(-c5c(Cl)cccc5Cl)noc3C3CC3)C4)sc2c1 [Example 39, 2-(2-((1R,3s,5S,8r)-3-((5-Cyclopropyl-3-(2,6-dichlorophenyl)isoxazol-4-yl)methoxy)-8-hydroxybicyclo[3.2.1]octan-8-yl)-4-fluorobenzo[d]thiazole-6-carboxamido)ethanesulfonic acid, ammonia salt]",760 nM,3.2 nM
"O=C(O)c1ccc2nc([C@]3(O)CC[C@@H](OCc4c(-c5c(Cl)cncc5Cl)noc4C4CC4)CC3)sc2c1 [Example 11-16, 2-((1s,4s)-4-((5-Cyclopropyl-3-(3,5-dichloropyridin-4-yl)isoxazol-4-yl)methoxy)-1-hydroxycyclohexyl)benzo[d]thiazole-6-carboxylic acid]",570 nM,84 nM
"O=C(O)c1cc(F)c2nc([C@]3(O)[C@@H]4CC[C@H]3C[C@H](OCc3c(-c5c(Cl)cccc5Cl)noc3C3CC3)C4)sc2c1 [Example 11-27, 2-((1R,3s,5S,8r)-3-((5-cyclopropyl-3-(2,6-dichlorophenyl)isoxazol-4-yl)methoxy)-8-hydroxybicyclo[3.2.1]octan-8-yl)-4-fluorobenzo[d]thiazole-6-carboxylic acid]",1 nM,3.8 nM
"O=C(O)c1ccc2nc(C3(O)CC4(CC(OCc5c(-c6c(Cl)cccc6Cl)noc5C5CC5)C4)C3)sc2c1 (single isomer, unassigned) [Example 11-4b, 2-(6-((5-Cyclopropyl-3-(2,6-dichlorophenyl)isoxazol-4-yl)methoxy)-2-hydroxyspiro[3.3]heptan-2-yl)benzo[d]thiazole-6-carboxylic acid]",380 nM,120 nM
